Assay results as given in US11285127B2, “Compositions and methods for lowering triglycerides without raising LDL-C levels in a subject on concomitant statin therapy” (Amarin Pharmaceuticals Ireland Limited, priority 2013, dated 2022).

Tested on: patients with fasting triglyceride levels >200 mg/dl and <500 mg/dl despite statin therapy
Assay: 12-week study: lipoprotein particle concentration (VLDL, LDL, HDL; nuclear magnetic resonance)
Format: in vivo, human
Excerpt: Parameters (a)-(z) can be measured in accordance with any clinically acceptable methodology. For example, triglycerides, total cholesterol, HDL-C and fasting blood sugar can be sample from serum and analyzed using standard photometry techniques. VLDL-TG, LDL-C and VLDL-C can be calculated or determined using serum lipoprotein fractionation by preparative ultracentrifugation and subsequent quantitative analysis by refractometry or by analytic ultracentrifugal methodology. Apo A1, Apo B and hsCRP can be determined from serum using standard nephelometry techniques. Lipoprotein (a) can be determined from serum using standard turbidimetric immunoassay techniques. LDL particle number and particle size can be determined using nuclear magnetic resonance (NMR) spectrometry. Remnants lipoproteins and LDL-phospholipase A2 can be determined from EDTA plasma or serum and serum, respectively, using enzymatic immunoseparation techniques. Oxidized LDL, intercellular adhesion molecule-1 and interleukin-2 levels can be determined from serum using standard enzyme immunoassay techniques. These techniques are described in detail in standard textbooks, for example Tietz Fundamentals of Clinical Chemistry, 6th Ed. (Burtis, Ashwood and Borter Eds.), WB Saunders Company.
A multi-center, placebo-controlled, randomized, double-blind, 12-week study was performed to evaluate the efficacy and safety of >96% E-EPA in patients with fasting triglyceride levels >200 mg/dl and <500 mg/dl despite statin therapy (the mean of two qualifying entry values needed to be >185 mg/dl and at least one of the values needed to be >200 mg/dl). The primary objective of the study was to determine the efficacy of >96% E-EPA 2 g daily and 4 g daily, compared to placebo, in lowering fasting TG levels in patients with high risk for cardiovascular disease and with fasting TG levels 200 mg/dl and <500 mg/dl, despite treatment to LDL-C goal on statin therapy.
The secondary objectives of this study were the following: • 1. To determine the safety and tolerability of >96% E-EPA 2 g daily and 4 g daily; • 2. To determine the effect of >96% E-EPA on lipid and apolipoprotein profiles including total cholesterol (TC), non-high-density lipoprotein cholesterol (non-HDL-C), low density lipoprotein cholesterol (LDL-C), high density lipoprotein cholesterol (HDL-C), and […]; • 3. To determine the effect of >96% E-EPA on lipoprotein associated phospholipase A2 (Lp-PLA2) from baseline to week 12; • 4. To determine the effect of >96% E-EPA on low-density lipoprotein (LDL) particle number and size; • 5. To determine the effect of >96% E-EPA on oxidized LDL; • 6. To determine the effect of >96% E-EPA on fasting plasma glucose (FPG) and hemoglobin A1c (HbA1c); • 7. To determine the effect of >96% E-EPA on insulin resistance; • 8. To determine the effect of >96% E-EPA on high-sensitivity C-reactive protein (hsCRP); • 9. To determine the effects of >96% E-EPA 2 g daily and 4 g daily on the incorporation of fatty acids into red blood cell membranes and into plasma phospholipids; • 10. To explore the relationship between baseline fasting TG levels and the reduction in fasting TG levels; and • 11. To explore the relationship between changes of fatty acid concentrations in plasma and red blood cell membranes, and the reduction in fasting TG levels.
The primary efficacy variable for the double-blind treatment period was percent change in TG from baseline to Week 12 endpoint. […]

[1] = IPE 4 g/day (n = 216), 12 weeks
[2] = IPE 4 g/day (n = 216); 12 weeks
[3] = IPE 4 g/day (n = 216); 12 weeks; IDL (23-29 nm)
[4] = IPE 4 g/day (n = 216); 12 weeks; large HDL (9.4-14.0 nm)
[5] = IPE 4 g/day (n = 216); 12 weeks; large LDL (20.5-23.0 nm)
[6] = IPE 4 g/day (n = 216); 12 weeks; large VLDL (>60 nm)
[7] = IPE 4 g/day (n = 216); 12 weeks; medium HDL (8.2-9.4 nm)
[8] = IPE 4 g/day (n = 216); 12 weeks; medium VLDL (42-60 nm)
[9] = IPE 4 g/day (n = 216); 12 weeks; small HDL (7.3-8.2 nm)
[10] = IPE 4 g/day (n = 216); 12 weeks; small LDL (18.0-20.5 nm)
[11] = IPE 4 g/day (n = 216); 12 weeks; small VLDL (29-42 nm)
[12] = IPE 4 g/day vs placebo; 12 weeks; Hodges-Lehmann median

SMILES: CC/C=C\C/C=C\C/C=C\C/C=C\C/C=C\CCCC(=O)OCC [AMR101, ethyl eicosapentaenoate]
- Total VLDL particle concentration, End of Treatment (median) (IPE 2 g/day (n = 222), 12 weeks): 122.4 nmol/L
- IDL particle concentration, Change from Baseline % (median) [1]: 23.7%
- IDL particle concentration, End of Treatment (median) [1]: 63.0 nmol/L
- Large HDL particle concentration, Change from Baseline % (median) [1]: −21.6%
- Large HDL particle concentration, End of Treatment (median) [1]: 1.9 µmol/L
- Large LDL particle concentration, Change from Baseline % (median) [1]: 55.2%
- Large LDL particle concentration, End of Treatment (median) [1]: 172.5 nmol/L
- Large VLDL particle concentration, Change from Baseline % (median) [1]: −41.9%
- Large VLDL particle concentration, End of Treatment (median) [1]: 7.7 nM
- Medium HDL particle concentration, Change from Baseline % (median) [1]: 4.2%
- Medium HDL particle concentration, End of Treatment (median) [1]: 6.9 µmol/L
- Medium VLDL particle concentration, Change from Baseline % (median) [1]: −6.9%
- Medium VLDL particle concentration, End of Treatment (median) [1]: 49.7 nmol/L
- Small HDL particle concentration, Change from Baseline % (median) [1]: −3.9%
- Small HDL particle concentration, End of Treatment (median) [1]: 23.1 µmol/L
- Small LDL particle concentration, Change from Baseline % (median) [1]: −1.1%
- Small LDL particle concentration, End of Treatment (median) [1]: 902.5 nmol/L
- Small VLDL particle concentration, Change from Baseline % (median) [1]: 8.3%
- Small VLDL particle concentration, End of Treatment (median) [1]: 46.8 nmol/L
- Total HDL particle concentration, Change from Baseline % (median) [1]: −4.0%
- Total HDL particle concentration, End of Treatment (median) [1]: 32.6 µmol/L
- Total LDL particle concentration, Change from Baseline % (median) [1]: 3.8%
- Total LDL particle concentration, End of Treatment (median) [1]: 1191 nmol/L
- Total VLDL particle concentration, Change from Baseline % (median) [1]: −2.5%
- Total VLDL particle concentration, End of Treatment (median) [1]: 110.0 nmol/L
- Total HDL particle concentration, Change from Baseline % (median) [2]: −4.0%
- Total HDL particle concentration, End of Treatment (median) [2]: 32.6 μmon/L
- Total LDL particle concentration, Change from Baseline % (median) [2]: 3.8%
- Total LDL particle concentration, End of Treatment (median) [2]: 1191 nmol/L
- Total VLDL particle concentration, Change from Baseline % (median) [2]: −2.5%
- Total VLDL particle concentration, End of Treatment (median) [2]: 110.0 nmol/L
- IDL particle concentration, Change from Baseline % (median) [3]: 23.7%
- IDL particle concentration, End of Treatment (median) [3]: 63.0 nmol/L
- Large HDL particle concentration, Change from Baseline % (median) [4]: −21.6%
- Large HDL particle concentration, End of Treatment (median) [4]: 1.9 μmon
- Large LDL particle concentration, Change from Baseline % (median) [5]: 55.2%
- Large LDL particle concentration, End of Treatment (median) [5]: 172.5 nmol/L
- Large VLDL particle concentration, Change from Baseline % (median) [6]: −41.9%
- Large VLDL particle concentration, End of Treatment (median) [6]: 7.7 nM
- Medium HDL particle concentration, Change from Baseline % (median) [7]: 4.2%
- Medium HDL particle concentration, End of Treatment (median) [7]: 6.9 μmon/L
- Medium VLDL particle concentration, Change from Baseline % (median) [8]: −6.9%
- Medium VLDL particle concentration, End of Treatment (median) [8]: 49.7 nmol/L
- Small HDL particle concentration, Change from Baseline % (median) [9]: −3.9%
- Small HDL particle concentration, End of Treatment (median) [9]: 23.1 μmon/L
- Small LDL particle concentration, Change from Baseline % (median) [10]: −1.1%
- Small LDL particle concentration, End of Treatment (median) [10]: 902.5 nmol/L
- Small VLDL particle concentration, Change from Baseline % (median) [11]: 8.3%
- Small VLDL particle concentration, End of Treatment (median) [11]: 46.8 nmol/L
- Total HDL particle concentration, Median Change From Baseline IPE 4 g/day vs Placebo, % [12]: −7.4%
- Total LDL particle concentration, Median Change From Baseline IPE 4 g/day vs Placebo, % [12]: −7.7%
- Total VLDL particle concentration, Median Change From Baseline IPE 4 g/day vs Placebo, % [12]: −12.2%
- IDL particle concentration, Median Change From Baseline IPE 4 g/day vs Placebo, % (IPE 4 g/day vs placebo; 12 weeks; Hodges-Lehmann median; IDL (23-29 nm)): 10.0%
- Large HDL particle concentration, Median Change From Baseline IPE 4 g/day vs Placebo, % (IPE 4 g/day vs placebo; 12 weeks; Hodges-Lehmann median; large HDL (9.4-14.0 nm)): −31.0%
- Large LDL particle concentration, Median Change From Baseline IPE 4 g/day vs Placebo, % (IPE 4 g/day vs placebo; 12 weeks; Hodges-Lehmann median; large LDL (20.5-23.0 nm)): 34.2%
- Large VLDL particle concentration, Median Change From Baseline IPE 4 g/day vs Placebo, % (IPE 4 g/day vs placebo; 12 weeks; Hodges-Lehmann median; large VLDL (>60 nm)): −46.4%
- Medium HDL particle concentration, Median Change From Baseline IPE 4 g/day vs Placebo, % (IPE 4 g/day vs placebo; 12 weeks; Hodges-Lehmann median; medium HDL (8.2-9.4 nm)): −6.5%
- Medium VLDL particle concentration, Median Change From Baseline IPE 4 g/day vs Placebo, % (IPE 4 g/day vs placebo; 12 weeks; Hodges-Lehmann median; medium VLDL (42-60 nm)): −12.1%
- Small HDL particle concentration, Median Change From Baseline IPE 4 g/day vs Placebo, % (IPE 4 g/day vs placebo; 12 weeks; Hodges-Lehmann median; small HDL (7.3-8.2 nm)): −2.8%
- Small LDL particle concentration, Median Change From Baseline IPE 4 g/day vs Placebo, % (IPE 4 g/day vs placebo; 12 weeks; Hodges-Lehmann median; small LDL (18.0-20.5 nm)): −13.5%
- Small VLDL particle concentration, Median Change From Baseline IPE 4 g/day vs Placebo, % (IPE 4 g/day vs placebo; 12 weeks; Hodges-Lehmann median; small VLDL (29-42 nm)): 2.8%
